Measurements from patent US9187472B2 (AbbVie Inc., priority 2012, dated 2015).

Columns and labels:
[1] = biological target: NAMPT (human, recombinant, C-terminally His-tagged) (Homo sapiens, UniProt P43490); test: Time-Resolved Fluorescence Resonance Energy Transfer (TR-FRET) Binding Assay of NAMPT; settings: without substrates; 6.8 nM NAMPT, 200 nM probe, 3 hours equilibration
Outline: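 Read-out is the time-resolved FRET ratio Em520/Em495 (excitation 337 nm) between a terbium anti-His antibody (1 nM) on the enzyme and an Oregon Green 488-labelled nicotinamide-competitive inhibitor probe (200 nM). Enzyme was 6.8 nM, DMSO 2%, pH 7.5 HEPES buffer; 3 h room-temperature equilibration preceded reading.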

[2] = biological target: NAMPT (Homo sapiens, UniProt P43490); test: TR-FRET Binding Assay of NAMPT with PRPP; settings: with 200 μM PRPP and 2.5 mM ATP; 2 nM NAMPT, 2 nM probe, 16 hours equilibration
Outline: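 NAMPT 2 nM + probe 2 nM + Tb-anti-His Ab 1 nM; PRPP 200 μM, ATP 2.5 mM, DMSO 2%; 16 h equilibration before TR-FRET read.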

[3] = system: PC3 cells; test: NAMPT Cell Proliferation Assay; assay type: cell-based; settings: Homo sapiens, PC-3, 120 h, 5 days incubation, cell viability by Cell Titer Glo
Outline: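 Seed PC3 at 500 cells/well (RPMI, 10% HI-FBS), attach overnight; add compound, 10-fold series 10 μM → 1×10^−5 μM; incubate 5 d, 37° C/5% CO2; luminescent viability readout; fit % inhibition sigmoidally for IC50.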

NAMPT (human, recombinant, C-terminally His-tagged), sequence (P43490 whole entry): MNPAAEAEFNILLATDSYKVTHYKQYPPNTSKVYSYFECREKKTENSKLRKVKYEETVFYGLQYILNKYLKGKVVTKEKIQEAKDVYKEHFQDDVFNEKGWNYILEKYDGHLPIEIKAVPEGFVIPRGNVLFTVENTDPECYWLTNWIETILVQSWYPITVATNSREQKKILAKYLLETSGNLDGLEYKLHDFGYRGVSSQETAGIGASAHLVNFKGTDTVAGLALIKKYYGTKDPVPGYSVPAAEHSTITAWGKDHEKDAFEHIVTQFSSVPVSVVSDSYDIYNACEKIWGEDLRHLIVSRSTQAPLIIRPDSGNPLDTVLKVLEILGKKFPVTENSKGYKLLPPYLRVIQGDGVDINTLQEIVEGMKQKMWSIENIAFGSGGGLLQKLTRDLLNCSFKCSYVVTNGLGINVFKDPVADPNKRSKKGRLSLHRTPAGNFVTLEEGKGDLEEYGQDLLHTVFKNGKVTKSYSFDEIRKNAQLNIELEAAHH
NAMPT, sequence (P43490 whole entry): as above

Compound | IC50 [1] [nM] | IC50 [2] [nM] | IC50 [3] [nM]
Cc1nn(C)cc1CC(=O)N(CC1CCCO1)c1ncc(C(=O)NCc2ccc3nccn3c2)s1 (stereo not drawn) [Example 184, 2-{[(1,3-dimethyl-1H-pyrazol-4-yl)acetyl](tetrahydrofuran-2-ylmethyl)amino}-N-(imidazo[1,2-a]pyridin-6-ylmethyl)-1,3-thiazole-5-carboxamide] | 4340 | 2.54 | 65.1
CC(C)C(=O)N1CC=C(c2ccc(C(=O)NCc3ccc4nccn4c3)cc2)CC1 [Example 90, N-(imidazo[1,2-a]pyridin-6-ylmethyl)-4-[1-(2-methylpropanoyl)-1,2,3,6-tetrahydropyridin-4-yl]benzamide] | 204 | 0.63 | 18.7
CC1(C(=O)N2CCC(c3ccc(C(=O)NCc4ccn5ccnc5c4)s3)C2)COC1 (stereo not drawn) [Example 767, N-(imidazo[1,2-a]pyridin-7-ylmethyl)-5-{1-[(3-methyloxetan-3-yl)carbonyl]pyrrolidin-3-yl}thiophene-2-carboxamide] | 265 | 0.64 | 67.2
O=C(CC1CCCC1)Nc1ccc(C(=O)NCc2ccc3nccn3c2)cc1 [Example 52, 4-[(cyclopentylacetyl)amino]-N-(imidazo[1,2-a]pyridin-6-ylmethyl)benzamide] | 18.6 | 5.79 | 4.07
O=C(NCc1ccn2ccnc2c1)c1ccc(C2CN(C(=O)C3CCCC3)C2)cc1 [Example 631, 4-[1-(cyclopentylcarbonyl)azetidin-3-yl]-N-(imidazo[1,2-a]pyridin-7-ylmethyl)benzamide] | 616 | 1.26 | 77.2
O=C(NCc1ccn2ccnc2c1)Nc1ccc(OC2CN(C(=O)CC3CC3)C2)cc1 [Example 427, 1-(4-{[1-(cyclopropylacetyl)azetidin-3-yl]oxy}phenyl)-3-(imidazo[1,2-a]pyridin-7-ylmethyl)urea] | 150 | 0.27 | 62.2
CC(C)C(C)C(=O)N1CC(c2ccc(C(=O)NCc3ccn4ccnc4c3)cc2)C1 (stereo not drawn) [Example 666, 4-[1-(2,3-dimethylbutanoyl)azetidin-3-yl]-N-(imidazo[1,2-a]pyridin-7-ylmethyl)benzamide] | 193 | 0.855 | 5.18
O=C(NCc1ccn2ccnc2c1)Nc1ccc(C2CCN(C(=O)c3ccccc3F)CC2)cc1 [Example 719, 1-{4-[1-(2-fluorobenzoyl)piperidin-4-yl]phenyl}-3-(imidazo[1,2-a]pyridin-7-ylmethyl)urea] | 6.32 | 0.835 | 2.37
O=C(NCc1ccn2ccnc2c1)Nc1ccc(C2CCN(C(=O)c3ccc(F)cc3F)CC2)cc1 [Example 722, 1-{4-[1-(2,4-difluorobenzoyl)piperidin-4-yl]phenyl}-3-(imidazo[1,2-a]pyridin-7-ylmethyl)urea] | 39.4 | 1.01 | 3.88
Cn1nccc1C(=O)N1CCC(c2ccc(C(=O)NCc3ccn4ccnc4c3)s2)C1 (stereo not drawn) [Example 799, N-(imidazo[1,2-a]pyridin-7-ylmethyl)-5-{1-[(1-methyl-1H-pyrazol-5-yl)carbonyl]pyrrolidin-3-yl}thiophene-2-carboxamide] | 102 | 0.406 | 6.96
COCCC(=O)N(CC1CCCO1)c1ncc(C(=O)NCc2ccn3ccnc3c2)s1 (stereo not drawn) [Example 121, N-(imidazo[1,2-a]pyridin-7-ylmethyl)-2-[(3-methoxypropanoyl)(tetrahydrofuran-2-ylmethyl)amino]-1,3-thiazole-5-carboxamide] | 486 | 0.234 | 3.91
O=C(Nc1ccc(C(=O)NCC2CCS(=O)(=O)C2)cc1)Nc1ccc2nccn2c1 (stereo not drawn) [Example 24, N-[(1,1-dioxidotetrahydrothiophen-3-yl)methyl]-4-[(imidazo[1,2-a]pyridin-6-ylcarbamoyl)amino]benzamide] | 167 | 0.363 | 691
O=C(Nc1ccc(C(=O)NCC2CCCCO2)cc1)Nc1ccc2ncc(Cl)n2c1 (stereo not drawn) [Example 396, 4-{[(3-chloroimidazo[1,2-a]pyridin-6-yl)carbamoyl]amino}-N-(tetrahydro-2H-pyran-2-ylmethyl)benzamide] | 22.6 | 0.36 | 32.4
O=C(Nc1ccc(C2=CCN(C(=O)C3CCOCC3)CC2)cc1)Nc1ccc2nccn2c1 [Example 34, 1-imidazo[1,2-a]pyridin-6-yl-3-{4-[1-(tetrahydro-2H-pyran-4-ylcarbonyl)-1,2,3,6-tetrahydropyridin-4-yl]phenyl}urea] | 208 | 0.377 | 38.3
O=C(NCc1ccn2ccnc2c1)Nc1ccc(C2CN(C(=O)CC3CCOCC3)C2)cc1 [Example 461, 1-(imidazo[1,2-a]pyridin-7-ylmethyl)-3-{4-[1-(tetrahydro-2H-pyran-4-ylacetyl)azetidin-3-yl]phenyl}urea] | 459 | 0.169 | 31.4
CC[C@H](C)C(=O)NC1(c2ccc(C(=O)NCc3ccn4ccnc4c3)s2)CCC1 [Example 470, N-(imidazo[1,2-a]pyridin-7-ylmethyl)-5-(1-{[(2S)-2-methylbutanoyl]amino}cyclobutyl)thiophene-2-carboxamide] | 5580 | 0.456 | 936
CC(C)C(=O)N1CC=C(c2ccc(C(=O)NCc3ccn4ccnc4c3)o2)CC1 [Example 744, N-(imidazo[1,2-a]pyridin-7-ylmethyl)-5-[1-(2-methylpropanoyl)-1,2,3,6-tetrahydropyridin-4-yl]furan-2-carboxamide] | 1080 | 0.806 | 505
O=C(NCCCCC1CCN(C(=O)CC2CC2)CC1)Nc1ccc2nccn2c1 [Example 64, 1-{4-[1-(cyclopropylacetyl)piperidin-4-yl]butyl}-3-imidazo[1,2-a]pyridin-6-ylurea] | 518 | 0.495 | 19.8
CC(C)OCCNC(=O)N(CC1CCCO1)c1ncc(C(=O)NCc2ccc3nccn3c2)s1 (stereo not drawn) [Example 115, N-(imidazo[1,2-a]pyridin-6-ylmethyl)-2-[{[2-(propan-2-yloxy)ethyl]carbamoyl}(tetrahydrofuran-2-ylmethyl)amino]-1,3-thiazole-5-carboxamide] | 243 | 0.676 | 6.38
COC[C@H]1CCCN1C(=O)c1ccc(C(=O)NCc2ccn3ccnc3c2)s1 [Example 823, N-(imidazo[1,2-a]pyridin-7-ylmethyl)-5-{[(2R)-2-(methoxymethyl)pyrrolidin-1-yl]carbonyl}thiophene-2-carboxamide] | 189 | 0.356 | 4.62
CC(C)OCC(=O)N1CCC(Oc2ccc(C(=O)NCc3ccc4nccn4c3)cc2)CC1 [Example 167, N-(imidazo[1,2-a]pyridin-6-ylmethyl)-4-({1-[(propan-2-yloxy)acetyl]piperidin-4-yl}oxy)benzamide] | 1730 | 2.52 | 104
O=C(NCc1ccn2ccnc2c1)c1ccc(-c2cnn(CC3(F)CCOCC3)c2)o1 [Example 790, 5-{1-[(4-fluorotetrahydro-2H-pyran-4-yl)methyl]-1H-pyrazol-4-yl}-N-(imidazo[1,2-a]pyridin-7-ylmethyl)furan-2-carboxamide] | 79.5 | 0.586 | 2.6
